Measured values as given in ChEMBL document CHEMBL6182924, “Discovery of a Novel and Potent MET Transcription Inhibitor Targeting Promoter G-Quadruplex for the Treatment of NSCLC” (J Med Chem, 2025).
Calls of active or inactive are those of the source. The calls are words filed in the database; no cut-off is given here.

What was measured:
A549 [1] = test: Antitumor activity against human A549 cells xenografted in BALB/c mouse assessed as tumor growth inhibition at 20 mg/kg, ip administered once a day and measured up to 24 days; assay type: functional; settings: A549, 576 h, time <= 24 day, read-out: TGI
A549 [2] = test: Antitumor activity against human A549 cells xenografted in BALB/c mouse assessed as downregulation of AKT expression in tumor at 20 mg/kg, po administered once a day and measured for 20 days by Western blot analysis; assay type: functional, organism-based; settings: time 20.0 day
NCI-H1975 [3] = test: Induction of apoptosis in human NCI-H1975 cells assessed as necrotic cells at 0.5 uM incubated for 24 hrs by Annexin V-FITC/PI staining based flow cytometry analysis (reference value: 7.33 %); assay type: functional
A549 [4] = test: Induction of cell cycle arrest in human A549 cells assessed as accumulation of cells at G2 phase at 0.5 uM measured for 24 hrs by PI/Rnase staining based flow cytometry (reference value: 13.4 %); assay type: functional
A549 [5] = test: Induction of apoptosis in human A549 cells assessed as viable cells at 0.5 uM incubated for 24 hrs by Annexin V-FITC/PI staining based flow cytometry analysis (reference value: 91.3%); assay type: functional; settings: read-out: Activity
NCI-H1975 [6] = test: Induction of apoptosis in human NCI-H1975 cells assessed as necrotic cells at 2 uM incubated for 24 hrs by Annexin V-FITC/PI staining based flow cytometry analysis (reference value: 7.33 %); assay type: functional
A549 [7] = test: Antiproliferative activity against human A549 cells incubated for 3 days by CCK-8 assay; assay type: functional, cell-based; settings: A549, 72 h
NCI-H1975 [8] = test: Induction of apoptosis in human NCI-H1975 cells assessed as viable cells at 1 uM incubated for 24 hrs by Annexin V-FITC/PI staining based flow cytometry analysis (reference value: 90.1 %); assay type: functional; settings: read-out: Activity
A549 [9] = test: Inhibition of c-MET expression in human A549 cells up to 2000 nM by Western blot analysis; assay type: functional, cell-based
[10] = Toxicity in BALB/c mouse xenografted with human A549 cells assessed as body weight loss at 20 mg/kg, po administered once a day and measured after 20 days; assay type: organism-based; settings: in vivo, 480 h, time 20 day
NCI-H1975 [11] = test: Antiproliferative activity against human NCI-H1975 cells incubated for 3 days by CCK-8 assay; assay type: functional, cell-based; settings: NCI-H1975, 72 h
A549 [12] = test: Antitumor activity against human A549 cells xenografted in BALB/c mouse assessed as reduction in ki67 expression in tumor at 40 mg/kg, po administered once a day and measured up to 24 days by […] based analysis; assay type: functional, organism-based; settings: time <= 24.0 day
A549 [13] = test: Induction of apoptosis in human A549 cells assessed as necrotic cells at 2 uM incubated for 24 hrs by Annexin V-FITC/PI staining based flow cytometry analysis (reference value: 4.37 %); assay type: functional

Question: For COc1cccc(-c2ccc(-c3nc4c5cccnc5c5ncccc5c4[nH]3)o2)c1, which inhibition in vivo at 20 mg/kg (A549 [1]) is on record?
Answer: 55.6%

Question: What about the Activity (A549 [2]) of the same molecule?
Answer: Active

Question: What about the Activity (NCI-H1975 [3]) of the same molecule?
Answer: 4.81%

Question: And the Activity (A549 [4])?
Answer: 14.6%

Question: What about the viability at 0.5 µM (A549 [5]) of the same molecule?
Answer: 83.2%

Question: What about the Activity (NCI-H1975 [6]) of the same molecule?
Answer: 3.94%

Question: What about the IC50 (A549 [7]) of the same molecule?
Answer: 430 nM

Question: What about the viability at 1 µM (NCI-H1975 [8]) of the same molecule?
Answer: 83.6%

Question: And the inhibition (A549 [9])?
Answer: Active

Question: And the Activity [10]?
Answer: Non-toxic

Question: And the IC50 (NCI-H1975 [11])?
Answer: 1680 nM

Question: What about the Activity (A549 [12]) of the same molecule?
Answer: Active

Question: And the Activity (A549 [13])?
Answer: 6.99%
